We go through 13 compounds from publication PMC7238388, “Biological Evaluation of Newly Synthesized Biaryl Guanidine Derivatives to Arrest β-Secretase Enzymatic Activity Involved in Alzheimer's Disease” (BioMed Research International, 2020).

Read-outs that look alike come from different tables or passages of the source.

Data set [1] has as its target T1, BACE1 enzyme (Homo sapiens, UniProt P56817).
T1 construct: purchased Sigma-Aldrich CS0010
The data set is described as follows: BACE1 FRET-based inhibitory activity assay (Sigma-Aldrich kit CS0010). The class given is biochemical. As for the experimental part: BACE1 inhibitory activity was carried out by adopting the procedures described by the Sigma-Aldrich FRET-based assay activity kit (product # CS0010).
Briefly, the assay was carried out in a fixed volume of 100 μl with the BACE1 substrate (20 μl, 50 μM), assay buffer (78 μl/78-X μl, pH 4.5), test sample(s) (X μl, 100 μM), and BACE1 enzyme (2 μl, ~0.3 unit/μl) incubated at 37°C for 75 min in 96-well microplate reaction mixture. The baseline fluorescence (null time) signal was noticed (at 320 nm) immediately after the addition of BACE1 enzymes while emission signals were monitored at 405 nm at 25°C. Both the enzyme and the substrate were prepared in the buffer while tested samples dissolved primarily in DMSO (5%) subsequently in serially diluted buffer solution in a desired volume of 2 μl, 3 μl, and 5 μl having 200 pmol, 300 pmol, and 500 pmol concentration, respectively. A standard curve was prepared between fluorescent unit (FU) and standard solution (100 μM, 100-500 pmol, and 1-5 μl) to find out 50% BACE1 cleaving activity. The sample blank (buffer with substrate) was treated as the negative control while the positive control was the solution of the buffer with substrate and enzyme mixture (http://www.sigmaaldrich.com). Finally, IC50 of the intended compounds were calculated via GraphPad Prism v8 software.

The test system of data set [2] is AlCl3-induced neurotoxic mice. In words: Morris water maze test in AlCl3-induced neurotoxicity mice. In kind it is in vivo, BALB/c mice. The protocol:
(§1) Male BALB/c mice (3.5 to 5.5 months of age) were purchased from National Institute of Health (NIH) Islamabad, Pakistan. All experiments were performed by following the rules and regulations in accordance with the Helsinki Declaration after getting permission from the Departmental Review Committee (Ref. # PHM.Eth/CS-M01/18-001 dated 05/2018). Animals were kept in standard cages and provided food, water, and cleanliness in accordance with the documented protocols. Moreover, they were categorized into nine groups (n = 10) for experimental purposes.
(§2) The control group of mice was treated with drinking water having aluminum chloride (17 mg/kg) and tape water for a period of five weeks. Synthesized ligands (20-55 mg/kg) were administered to neutralize the AlCl3 effects and to design treated mouse groups. All the behavioral tests were performed on days 28 to 34 (08:30 am to 4:30 pm at 25 ± 2°C). Animals were shifted 20 minutes prior to the experimentation room to get accustomed with the test environment. Trials were recorded via videocam, and results were obtained to reveal the final conclusions.
To evaluate 3D spatial recalling memory of the animals under observations, an authentic and sensitive assay “Morris water maze test” was carried out.
The apparatus used for this test has a round pool with a 120 cm diameter and a 60 cm of depth. The pool is divided into 4 hypothetical quadrants North, West, South, and East. The experiment began on day 28, and 5 trials were executed each day. The mouse was given 1 min to find out the hidden platform with a 10 min interval between the two successive trials. The usual time essential for a mouse to reach at the platform was recorded, and an average of 5 trials was presumed as the escape latency of the animal for that day. On the 32nd day of intervention, a probe test was executed when there was no platform, with a different release position. The spatial memory of the mouse was estimated by computing the time spent by the mouse in the quadrant in which the platform was formerly located. […]

The subject of data set [3] is AlCl3-induced mouse models. The data set is described as follows: Novel object recognition memory test in AlCl3-induced AD model mice. In kind it is in vivo, BALB/c mice. The settings on record: AD model treated with compound; control 64.44 ± 2.50 s, AD model 31.80 ± 2.00 s; p < 0.05. As for the experimental part: as §1, §2
The novel object recognition memory test is an additional procedure to describe and evaluate the memory of the rodents. The entire methodology was performed in a specific designed box of dimensions about 25 cm × 25 cm × 25 cm at daytime (25 ± 2°C). […]

The mark [4] stands for this setting: BACE1 FRET assay, pH 4.5, 37°C, 75 min, read-out: IC50.

T1 sequence (P56817 46-501): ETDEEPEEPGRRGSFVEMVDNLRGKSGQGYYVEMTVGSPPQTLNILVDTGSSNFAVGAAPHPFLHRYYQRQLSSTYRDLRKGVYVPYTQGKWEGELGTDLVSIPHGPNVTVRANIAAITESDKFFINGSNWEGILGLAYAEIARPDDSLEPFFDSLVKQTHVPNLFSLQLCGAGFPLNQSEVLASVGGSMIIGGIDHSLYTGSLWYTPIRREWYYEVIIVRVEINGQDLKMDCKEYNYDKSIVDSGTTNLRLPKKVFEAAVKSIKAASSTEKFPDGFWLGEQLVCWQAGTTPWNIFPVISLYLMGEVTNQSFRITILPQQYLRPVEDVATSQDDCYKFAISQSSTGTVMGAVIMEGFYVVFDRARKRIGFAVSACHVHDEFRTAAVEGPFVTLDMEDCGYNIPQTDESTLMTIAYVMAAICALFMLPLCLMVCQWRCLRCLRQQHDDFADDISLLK

`N=C(Nc1ccccc1F)Nc1ccccc1F` [Compound 1, 1,3-bis(2-fluorophenyl)guanidine]: the melting point (commonly the temperature of the solid-liquid transition) fell in the range of 130 to 132 °C. In data set [1] (setting [4]), the IC50 (in general, the concentration that inhibits the measured activity by half) was determined as 85 µM.
Compound `N=C(Nc1ccc(Br)c2ccccc12)Nc1ccc(Br)c2ccccc12` [Compound 2, 1,3-bis(4-bromonaphthalen-1-yl)guanidine] gave a melting point of 128 to 130 °C. Further, the IC50 in data set [1] (setting [4]) amounted to 235 µM.
Compound `N=C(Nc1ccccc1[N+](=O)[O-])Nc1ccccc1[N+](=O)[O-]` [Compound 3, 1,3-bis(2-nitrophenyl)guanidine] registered a melting point of 136 to 138 °C. This compound gave an IC50 in data set [1] of 259 µM.
Consider `N=C(Nc1ccccn1)Nc1ccccn1` [Compound 4, 1,3-di(pyridin-2-yl)guanidine], for which the melting point lay in the range of 140 to 142 °C. Further, the IC50 in data set [1] (setting [4]) was determined as 9 µM.
For `N=C(Nc1ccc2ncccc2c1)Nc1ccc2ncccc2c1` [Compound 5, 1,3-di(quinolin-6-yl)guanidine], the melting point lay within 133 to 134 °C. The IC50 in data set [1] (setting [4]) was 0.091 µM.
Taken in the same sequence, the figures for `N=C(Nc1cc(F)c2ccccc2c1)Nc1cc(F)c2ccccc2c1` [Compound 6, 1,3-bis(4-fluoronaphthalen-2-yl)guanidine] were 126 to 128 °C and 0.102 µM.
The compound `N=C(Nc1ccc2ccccc2c1)Nc1ccc2ccccc2c1` [Compound 7, 1,3-di(naphthalen-2-yl)guanidine] yielded a melting point of 146 to 148 °C. For the same compound, the IC50 in data set [1] (setting [4]) was found to be 159 µM.
Taken in the same sequence, the figures for `N=C(Nc1cc(C(F)(F)F)cc(C(F)(F)F)c1)Nc1cc(C(F)(F)F)cc(C(F)(F)F)c1` [Compound 8, 1,3-bis(3,5-bis(trifluoromethyl)phenyl)guanidine] were 76 to 78 °C and 229 µM.
Take `N=C(Nc1cnc(F)c(F)c1)Nc1cnc(F)c(F)c1` [Compound 9, 1,3-bis(5,6-difluoropyridin-3-yl)guanidine]: the melting point fell in the range of 128 to 130 °C. The escape latency in data set [2] (day 5, AlCl3-induced mice treated with compound, AlCl3 group 50.60 ± 3.70, control 20.20 ± 2.01, p < 0.05, in s (unit assumed)) came to 27.72 ± 2.60. The “number of crossings of the targeted quadrant” value in data set [2] (probe test, AD model 6.10 ± 1.0, control 19.80 ± 1.90) is on record as 16.70 ± 1.07. For the same compound, in data set [2] (probe test, per hundred of total time (Figure 2c), AD-induced 23.6 ± 2.01, control 49.60 ± 2.35), the “time spent in exploration of the targeted quadrant” value stood at 41.07 ± 2.5. Besides, in data set [3], the exploration time is 53.80 ± 2.15 s.
Compound `N=C(Nc1ccc(Br)cc1)Nc1ccc(Br)cc1` [Compound 10, 1,3-bis(4-bromophenyl)guanidine] returned a melting point of 250 to 252 °C. For the same compound, the IC50 in data set [1] (setting [4]) stood at 321 µM. In data set [1] (FRET assay, at 500 pmol), this compound yielded a BACE1 inhibition of 35%.
`N=C(Nc1ccc(Cl)cc1F)Nc1ccc(Cl)cc1F` [Compound 11, 1,3-bis(4-chloro-2-fluorophenyl)guanidine] came in with a melting point of 160 to 162 °C. Besides, in data set [1] (setting [4]), the IC50 came out at 172 µM.
As for `N=C(Nc1ccc(F)cc1)Nc1ccc(F)cc1` [Compound 12, 1,3-bis(4-fluorophenyl)guanidine], the melting point is 146 to 148 °C. Moreover, the IC50 in data set [1] (setting [4]) was 103 µM.
With `N=C(Nc1ccc(F)c(F)c1)Nc1ccc(F)c(F)c1` [Compound 13, 1,3-bis(3,4-difluorophenyl)guanidine], in data set [1] (setting [4]), the IC50 worked out at 71 µM.
